Measured values: US20240317708A1, “INHIBITORS OF TRANSGLUTAMINASES” (ZEDIRA GMBH, priority 2021, published 2024)

Assays:
[1] = target: T1, recombinant human transglutaminase 2 (Homo sapiens, UniProt P21980); assay: Transglutaminase assay (dansylcadaverine incorporation into dimethylcasein, DCC-assay); format: biochemical; details: recombinant human TG2 10 nM, dansylcadaverine/dimethylcasein, 37° C.
T1 construct: purchased Zedira T022
T1 sequence (P21980 1-687): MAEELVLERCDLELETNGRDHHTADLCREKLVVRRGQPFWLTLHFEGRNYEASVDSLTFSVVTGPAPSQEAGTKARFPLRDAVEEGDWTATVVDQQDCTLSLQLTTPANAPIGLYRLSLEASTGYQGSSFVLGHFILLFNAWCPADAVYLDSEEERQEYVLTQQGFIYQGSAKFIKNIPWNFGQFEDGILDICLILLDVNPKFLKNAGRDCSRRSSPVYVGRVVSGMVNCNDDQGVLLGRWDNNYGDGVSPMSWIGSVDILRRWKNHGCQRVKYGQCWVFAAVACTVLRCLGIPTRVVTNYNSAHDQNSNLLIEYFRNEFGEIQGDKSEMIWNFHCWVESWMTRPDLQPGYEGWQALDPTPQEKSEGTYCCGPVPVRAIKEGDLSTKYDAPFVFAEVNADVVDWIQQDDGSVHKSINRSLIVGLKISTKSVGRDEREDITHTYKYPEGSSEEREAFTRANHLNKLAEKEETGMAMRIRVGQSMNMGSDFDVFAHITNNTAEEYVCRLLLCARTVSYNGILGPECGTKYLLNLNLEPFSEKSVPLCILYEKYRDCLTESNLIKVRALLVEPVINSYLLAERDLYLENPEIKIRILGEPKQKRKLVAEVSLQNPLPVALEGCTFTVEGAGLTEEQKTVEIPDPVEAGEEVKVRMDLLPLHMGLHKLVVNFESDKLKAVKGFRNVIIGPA
How it was run: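 IC50 derived from fluorescence slope between 20 and 30 min (λex 330 nm, λem 500 nm, 37 °C), expressed relative to a 2% DMSO control. Reaction: 10 nM recombinant human TG2, 4 μM dimethylcasein, 16.7 μM dansylcadaverine, 10 mM CaCl2 and glutathione, pH 8.0.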

[2] = Log D shake flask method (octanol / PBS pH 7.4, HPLC); format: physicochemical; details: octanol/phosphate-buffered saline (PBS); octanol / PBS pH 7.4, shake flask
Description: In order to classify the inventive compounds according to their lipophilicity, Log D values (distribution coefficient) were determined by means of the well-established shake flask method, measuring the partition of a compound between an octanol and phosphate-buffered saline (PBS, pH 7.4) by HPLC.

[3] = Caco-2 permeability assay (CacoReady kit); format: in vitro ADME; details: human
How it was run: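 Apparent permeability coefficients (Papp) were measured across Caco-2 cell barriers using a ready-to-use kit run per the supplier's protocol. Values serve as a predictor of oral/intestinal bioavailability.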

Compound | IC50 [1] [µM] | logD [2] | Papp [3] [×10⁻⁶ cm/s]
COC(=O)/C=C/CC[C@H](NC(=O)c1oc2ccccc2c1C)C(=O)Nc1cccn(CC(=O)N[C@H]2C[C@H]3C[C@@H]([C@@H]2C)C3(C)C)c1=O [III-70, (S,E)-methyl 6-(3-methylbenzofuran-2-carboxamido)-7-oxo-7-(2-oxo-1-(2-oxo-2-((1S,2S,3S,5R)-2,6,6-trimethylbicyclo[3.1.1]heptan-3-ylamino)ethyl)-1,2-dihydropyridin-3-ylamino)hept-2-enoate] | < 0.025 | 3 to 5 | 1 to 10
COC(=O)/C=C/CC[C@H](NC(=O)c1oc2ccccc2c1C)C(=O)Nc1cccn(CC23CC4CC(CC(C4)C2)C3)c1=O [III-79, (S,E)-methyl 7-(1-(1-adamantylmethyl)-2-oxo-1,2-dihydropyridin-3-ylamino)-6-(3-methylbenzofuran-2-carboxamido)-7-oxohept-2-enoate] | 0.25 to 1.5 | 3 to 5 | 1 to 10
COC(=O)/C=C/CC[C@H](NC(=O)c1coc(S(N)(=O)=O)c1)C(=O)Nc1cccn(CC(=O)NC2C3CC4CC2CC(NC(C)=O)(C4)C3)c1=O (stereo partly drawn) [III-164, (S,E)-methyl 7-(1-(2-(1-acetylamino-4-aminoadamantane)-2-oxoethyl)-2-oxo-1,2-dihydropyridin-3-ylamino)-7-oxo-6-(5-sulfamoylfuran-3-carboxamido)hept-2-enoate] | 0.25 to 1.5 | < 1 | < 1
Cc1c(C(=O)N[C@@H](CC/C=C/S(C)(=O)=O)C(=O)Nc2cccn(CC(=O)NC3C4CC5CC(C4)CC3C5)c2=O)oc2ccccc12 (stereo partly drawn) [III-90, (S,E)-N-(1-(1-(2-(2-adamantylamino)-2-oxoethyl)-2-oxo-1,2-dihydropyridin-3-ylamino)-6-(methylsulfonyl)-1-oxohex-5-en-2-yl)-3-methylbenzofuran-2-carboxamide] | < 0.025 | 1 to 3 | 1 to 10
COC(=O)/C=C/CC[C@H](NC(=O)c1snnc1C=O)C(=O)Nc1cccn(CC(=O)NC2(C(=O)O)C3CC4CC2CC(C(F)(F)F)(C4)C3)c1=O (stereo partly drawn) [III-174, (S,E)-methyl 6-(4-formyl-1,2,3-thiadiazole-5-carboxamido)-7-(1-(2-(2-carboxy-2-amino-5-(trifluoromethyl)adamantane)-2-oxoethyl)-2-oxo-1,2-dihydropyridin-3-ylamino)-7-oxohept-2-enoate] | 0.25 to 1.5 | 1 to 3 | < 1
COC(=O)/C=C/CC[C@H](NC(=O)c1sc(C(F)(F)F)nc1C)C(=O)Nc1cccn(CC(=O)N[C@@H]2C[C@H]3CC[C@@H]2C3)c1=O [III-98, (S,E)-methyl 7-(1-(2-((1R,2R,4S)-bicyclo[2.2.1]heptan-2-ylamino)-2-oxoethyl)-2-oxo-1,2-dihydropyridin-3-ylamino)-6-(4-methyl-2-(trifluoromethyl)thiazole-5-carboxamido)-7-oxohept-2-enoate] | < 0.025 | 1 to 3 | 1 to 10
COC(=O)/C=C/CC[C@H](NC(=O)c1cc(Cl)sc1Cl)C(=O)Nc1cccn(CC(=O)NC23CC4CC(C)(CC(C)(C4)C2)C3)c1=O [III-124, (S,E)-methyl 6-(2,5-dichlorothiophene-3-carboxamido)-7-(1-(2-(3,5-dimethyladamantane-1-amino)-2-oxoethyl)-2-oxo-1,2-dihydropyridin-3-ylamino)-7-oxohept-2-enoate] | < 0.025 | 3 to 5 | 1 to 10
COC(=O)/C=C/CC[C@H](NC(=O)C1CN2CCC1CC2)C(=O)Nc1cccn(CC(=O)NC2C3CC4CC(C3)CC2C4)c1=O (stereo partly drawn) [III-32, (S,E)-methyl 7-(1-(2-(2-adamantylamino)-2-oxoethyl)-2-oxo-1,2-dihydropyridin-3-ylamino)-7-oxo-6-(quinuclidine-3-carboxamido)hept-2-enoate] | 0.025 to 0.25 | 3 to 5 | < 1
COC(=O)/C=C/CC[C@H](NC(=O)c1ccnn1C)C(=O)Nc1cccn(CC(=O)N[C@@H]2C[C@H]3CC[C@@H]2C3)c1=O [III-111, (S,E)-methyl 7-(1-(2-((1R,2R,4S)-bicyclo[2.2.1]heptan-2-ylamino)-2-oxoethyl)-2-oxo-1,2-dihydropyridin-3-ylamino)-6-(1-methyl-1H-pyrazole-5-carboxamido)-7-oxohept-2-enoate] | < 0.025 | 1 to 3 | < 1
COC(=O)/C=C/CC[C@H](NC(=O)c1ccnn1C)C(=O)Nc1cccn(CC(=O)NC23CC4(C)CC(C)(CC(C)(C4)C2)C3)c1=O [III-109, (S,E)-methyl 7-(1-(2-(3,5,7-trimethyl-1-adamantylamino)-2-oxoethyl)-2-oxo-1,2-dihydropyridin-3-ylamino)-6-(1-methyl-1H-pyrazole-5-carboxamido)-7-oxohept-2-enoate] | < 0.025 | 3 to 5 | < 1
COC(=O)/C=C/CC[C@H](NC(=O)c1ccc2ccoc2c1)C(=O)Nc1cccn(CC(=O)NC2C3CC4CC2CC(C(N)=O)(C4)C3)c1=O (stereo partly drawn) [III-166, (S,E)-methyl 6-(benzofuran-6-carboxamido)-7-(1-(2-(4-aminoadamantane-1-carboxamide)-2-oxoethyl)-2-oxo-1,2-dihydropyridin-3-ylamino)-7-oxohept-2-enoate] | 0.025 to 0.25 | 1 to 3 | < 1
CCc1c(C(=O)N[C@@H](CC/C=C/C(=O)NC2CCCC2)C(=O)Nc2cccn(CC(=O)NC34CC(C3)C4)c2=O)oc2ccccc12 [III-147, (S,E)-N7-(1-(2-(bicyclo[1.1.1]pentan-1-ylamino)-2-oxoethyl)-2-oxo-1,2-dihydropyridin-3-yl)-N1-cyclopentyl-6-(3-ethylbenzofuran-2-carboxamido)hept-2-enediamide] | 0.025 to 0.25 | 1 to 3 | 1 to 10
COC(=O)/C=C/CC[C@H](NC(=O)c1oc2ccccc2c1C)C(=O)Nc1cccn(CC(=O)NC23CC4(C)CC(C)(CC(C)(C4)C2)C3)c1=O [III-92, (S,E)-methyl 7-(1-(2-(3,5,7-trimethyl-1-adamantylamino)-2-oxoethyl)-2-oxo-1,2-dihydropyridin-3-ylamino)-6-(3-methylbenzofuran-2-carboxamido)-7-oxohept-2-enoate] | < 0.025 | 3 to 5 | 1 to 10
COC(=O)/C=C/CC[C@H](NC(=O)c1oc2ccccc2c1C)C(=O)Nc1cccn(CC(=O)NC(C)C23CC4CC(CC(C4)C2)C3)c1=O (stereo partly drawn) [III-57, (S,E)-methyl 7-(1-(2-(1-(1-adamantyl)ethanamino)-2-oxoethyl)-2-oxo-1,2-dihydropyridin-3-ylamino)-6-(3-methylbenzofuran-2-carboxamido)-7-oxohept-2-enoate] | 0.025 to 0.25 | 3 to 5 | 1 to 10
COC(=O)/C=C/CC[C@H](NC(=O)c1nc2ccccc2[nH]1)C(=O)Nc1cccn(CC(=O)NC2C3CC4CC(C3)CC2C4)c1=O (stereo partly drawn) [III-11, (S,E)-methyl 6-(1H-benzo[d]imidazole-2-carboxamido)-7-(1-(2-(2-adamantylamino)-2-oxoethyl)-2-oxo-1,2-dihydropyridin-3-ylamino)-7-oxohept-2-enoate] | 0.025 to 0.25 | 3 to 5 | < 1
COC(=O)/C=C/CC[C@H](NC(=O)c1cnnn1C)C(=O)Nc1cccn(CC(=O)N[C@H]2C[C@H]3CC[C@]2(C)C3(C)C)c1=O [III-121, (S,E)-methyl 6-(1-methyl-1H-1,2,3-triazole-5-carboxamido)-7-oxo-7-(2-oxo-1-(2-oxo-2-((1R,2S,4R)-1,7,7-trimethylbicyclo[2.2.1]heptan-2-ylamino)ethyl)-1,2-dihydropyridin-3-ylamino)hept-2-enoate] | < 0.025 | 1 to 3 | < 1
COC(=O)/C=C/CC[C@H](NC(=O)c1ccnn1C)C(=O)Nc1cccn(CC(=O)NC2C3CC4CC(C3)CC2C4)c1=O (stereo partly drawn) [III-119, (S,E)-methyl 7-(1-(2-(2-adamantylamino)-2-oxoethyl)-2-oxo-1,2-dihydropyridin-3-ylamino)-6-(1-methyl-1H-pyrazole-5-carboxamido)-7-oxohept-2-enoate] | < 0.025 | < 1 | < 1
COC(=O)/C=C/CC[C@H](NC(=O)c1cncc(C(=O)OC)c1)C(=O)Nc1cccn(CC(=O)NC2C3CC4CC(C3)CC2C4)c1=O (stereo partly drawn) [III-36, (S,E)-methyl 5-(1-(1-(2-(2-adamantylamino)-2-oxoethyl)-2-oxo-1,2-dihydropyridin-3-ylamino)-7-methoxy-1,7-dioxohept-5-en-2-ylcarbamoyl)nicotinate] | 0.025 to 0.25 | 3 to 5 | < 1
